The results in this text go back to BindingDB's records for patent US9790233 (Case Western Reserve University, 2017).

As usually defined, the IC50 is the concentration that inhibits the measured activity by half. A low value points to greater potency in that assay.

This assay has as its target T1, 15-hydroxyprostaglandin dehydrogenase [NAD(+)] (Homo sapiens, UniProt P15428).
T1 sequence (P15428 whole entry): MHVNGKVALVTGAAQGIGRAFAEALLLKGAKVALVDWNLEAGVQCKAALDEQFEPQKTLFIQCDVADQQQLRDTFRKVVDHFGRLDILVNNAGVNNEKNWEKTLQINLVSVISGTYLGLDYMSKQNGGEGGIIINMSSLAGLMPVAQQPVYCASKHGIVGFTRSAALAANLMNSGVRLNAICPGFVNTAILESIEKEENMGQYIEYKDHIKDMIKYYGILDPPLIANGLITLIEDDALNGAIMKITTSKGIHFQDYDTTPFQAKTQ
As to the kind of experiment: In Vitro Assay.

With `CCCCC(=O)c1sc2nc(-c3nccs3)ccc2c1N` [US9790233, ID SW206992], the IC50 is 1.41 nM.
